Results reported in patent US20210253562A1, “ACYLSUFONAMIDE COMPOUNDS USEFUL AS EP3 RECEPTOR ANTAGONISTS” (Janssen Pharmaceutica NV, priority 2018, published 2021).

Assays:
[1] = target: T1, EP3 membrane (EP3 receptor) (Homo sapiens, UniProt P43115); assay: [3H]-PGE2 binding; EP3 competition binding (SPA)
T1 construct: purchased Millipore HTS092M
T1 sequence (P43115 1-390): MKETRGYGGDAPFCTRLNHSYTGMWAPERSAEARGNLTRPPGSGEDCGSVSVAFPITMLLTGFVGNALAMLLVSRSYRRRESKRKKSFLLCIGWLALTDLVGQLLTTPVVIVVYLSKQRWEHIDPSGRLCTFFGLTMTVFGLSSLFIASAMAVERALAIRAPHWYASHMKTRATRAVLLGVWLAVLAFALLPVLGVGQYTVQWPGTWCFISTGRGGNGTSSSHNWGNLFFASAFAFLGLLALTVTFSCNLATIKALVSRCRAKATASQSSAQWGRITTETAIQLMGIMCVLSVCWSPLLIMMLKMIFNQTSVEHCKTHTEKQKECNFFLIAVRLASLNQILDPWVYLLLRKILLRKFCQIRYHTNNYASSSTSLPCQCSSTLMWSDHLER
Method in brief: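 SPA competition at room temperature, 2 h: EP3 membranes 2 μg/well, 2 nM [3H]-PGE2, 0.1% DMSO, in Tris/MgCl2/EDTA buffer pH 7.4. Compounds in 1:3 serial dilution; scintillation read; Ki by one-site nonlinear fit.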

[2] = target: T2, CHO cells over-expressing the EP3 receptor (Homo sapiens, UniProt P43115); assay: CHO cell cAMP assay; EP3 cAMP antagonist dose response (sulprostone reference), HTRF; assay type: cell-based; conditions: sulprostone 700 nM (EC80) and FSK 2 μM (EC70); read-out: CHO_cAMP IC50
T2 construct: expressed in transfected cells; host or cells: CHO cells
T2 sequence (P43115 1-390): T1 sequence (P43115 1-390)
Method in brief: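 EP3-overexpressing CHO cells pre-incubated with test compound, then stimulated 30 min at 37 °C with FSK (2 μM, EC70) plus sulprostone (700 nM, EC80); antagonism seen as restored cAMP. cAMP measured by HTRF 665/615 ratio, converted via on-plate standard curve. IC50 from Hill fit of 11-point dosing.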

male Sprague Dawley rats = assay: IV infused EP3 antagonists on circulating insulin and glucose in the sulprostone infusion IVGTT model; assay type: in vivo, rat; conditions: SD rats, 2.1 mg/kg bolus followed by 3.09 mg/kg/hour infusion
From the text: Biological Example 3: IV Infused EP3 Antagonists on Circulating Insulin and Glucose in the Sulprostone Infusion IVGTT Model
Jugular vein and carotid artery cannulated male Sprague Dawley rats (˜250 g, available from Charles River) were housed one rat per suspended cage in a temperature-controlled room with 12-hour light/dark cycle. The rats were allowed ad libitum access to water and maintained on a regular diet. Animals were acclimated for minimum 5 days prior to the start of the experiment. Experimental procedures were carried out in accordance with institutional standards for animal care and were approved by the institute's animal care and use committee.
A blood sample for insulin and blood chemistry was collected at 20 min (t=−20) prior to the start of dosing with sulprostone and/or test compound (EP3 antagonist). […]
Blood samples from all animals were collected into Heparin treated tubes. Background was measured via a glucometer at the 0 and 2 min time points to ensure that the animal received the glucose bolus. Plasma insulin was measured via a Meso Scale Discovery metabolic assay (available from Meso Scale). Plasma glucose, free fatty acid (FFA), triglycerides, cholesterol and ketones were measured on an OLYMPUS AU400E chemistry analyzer. Observations on animal health were recorded throughout the procedure. […]

Row | Ki [1] | IC50 [2] | SMILES | suppression of glucose stimulated insulin secretion (GSIS) by sulprostone (male Sprague Dawley rats)
1 | 4 nM | 12 nM | O=C(NC/C=C1\CCCc2cnn(Cc3ccc(Cl)cc3Cl)c21)NS(=O)(=O)c1ccc(Cl)cc1 [Compound #4, (E)-4-chloro-N-((2-(1-(2,4-dichlorobenzyl)-1,4,5,6-tetrahydro-7H-indazol-7-ylidene)ethyl)carbamoyl)benzenesulfonamide] | reverse suppression of glucose stimulated insulin secretion (GSIS) by sulprostone
2 | 2 nM | 4 nM | Cc1nc(C)c(S(=O)(=O)NC(=O)NC/C=C2\CCCc3cnn(Cc4ccc(Cl)cc4Cl)c32)s1 [Compound #150, (E)-N-((2-(1-(2,4-dichlorobenzyl)-1,4,5,6-tetrahydro-7H-indazol-7-ylidene)ethyl)carbamoyl)-2,4-dimethylthiazole-5-sulfonamide] | 
3 | 9 nM | 8 nM | Cn1cc(S(=O)(=O)NC(=O)NC/C=C2\CCCc3cnn(Cc4ccc(Cl)cc4Cl)c32)cn1 [Compound #152, (E)-N-((2-(1-(2,4-dichlorobenzyl)-1,4,5,6-tetrahydro-7H-indazol-7-idene)ethyl)carbamoyl)-1-methyl-1H-pyrazole-4-sulfonamide] | 
4 | 2 nM | 4 nM | O=C(NC/C=C1\CCCn2nnc(-c3ccc(C(F)(F)F)cc3)c21)NS(=O)(=O)c1cc(Cl)c(Cl)s1 [Compound #155, (E)-4,5-dichloro-N-((2-(3-(4-(trifluoromethyl)phenyl)-6,7-dihydro-[1,2,3]triazolo[1,5-a]pyridin-4(5H)-ylidene)ethyl)carbamoyl)thiophene-2-sulfonamide] | 
5 | 2 nM | 4 nM | O=C(NC/C(F)=C1\CCCc2cnn(Cc3ccc(Cl)cc3Cl)c21)NS(=O)(=O)c1ccc(F)c(F)c1 [Compound #156, (Z)—N-((2-(1-(2,4-dichlorobenzyl)-1,4,5,6-tetrahydro-7H-indazol-7-ylidene)-2-fluoroethyl)carbamoyl)-3,4-difluorobenzenesulfonamide] | 
6 | > 10000 nM | > 20000 nM | O=C(NS(=O)(=O)c1ccc(Cl)cc1)OC/C=C1\CCCc2cnn(-c3ncccn3)c21 [compound 95] | 
7 | > 10000 nM | > 20000 nM | O=C(NS(=O)(=O)c1ccc(Cl)cc1)OC/C(F)=C1/COCc2cnn(-c3cccc(C(F)(F)F)c3)c21 [compound 108] | 
